Data as given in article PMC10992195, “Identification, heterologous expression and characterization of a new unspecific peroxygenase from Marasmius fiardii PR-910” (Bioresources and Bioprocessing, 2024).
Structures can show the parent of a compound that is named as a salt. Where two headings read alike, the source gives them in different places.

Key:
rMfiUPO [1] = test system: T1, rMfiUPO; conditions: 2 mM H2O2 co-substrate; 30 °C; optimal pH (pH 4.0 optimum in text; pH 4.5 sodium citrate in Fig. 4 legend)
T1 construct: gene MfiUPO

rMfiUPO [2] = test system: T2, rMfiUPO; experiment: spectrophotometric 4-nitrocatechol formation, […] nm, Michaelis-Menten fit; assay type: biochemical, Marasmius fiardii PR-910; conditions: 2 mM H2O2 co-substrate; 30 °C; pH 7.0 potassium phosphate
T2 construct: gene MfiUPO; full-length codon-optimised gene with native signal peptide, secreted by Pichia pastoris X33 (pPICZ-A); purified, glycosylated, 40-55 kDa smear, about 35 kDa after Endo H; short-type UPO, heme-thiolate

rMfiUPO [3] = test system: T2, rMfiUPO; experiment: spectrophotometric veratraldehyde formation, […] nm, Michaelis-Menten fit; assay type: biochemical, Marasmius fiardii PR-910; conditions: 2 mM H2O2 co-substrate; 30 °C; pH 6.0 potassium phosphate

## CCn1c(=NN=c2sc3cc(S(=O)(=O)O)ccc3n2CC)sc2cc(S(=O)(=O)O)ccc21 [ABTS, 2,2ʹ-azinobis (3-ethylbenzothiazoline-6-sulfonic acid) diammonium salt]
rMfiUPO [1]
  Km: 22 ± 7 µM

## O=[N+]([O-])c1ccc2c(c1)OCO2 [NBD, 5-nitro-1,3-benzodioxole]
rMfiUPO [2]
  Km: 93 ± 14 µM

## COc1ccc(CO)cc1OC [VA]
rMfiUPO [3]
  Km: 392 ± 109 µM
